The source of these data is patent US6649628B1, “N-[2-hydroxy-3-(1-piperidinyl)propoxy]pyridine-1-oxide-3-carboximidoyl chloride and its use in the treatment of insulin resistance” (Biorex Kutato es Fejleszto RT, priority 1999, dated 2003).

Marks after values point to notes of the source that are not given here.

The assay deals with STZ diabetic Wistar rats. The assay is described as follows: Preliminary test: N-oxide derivatives of bimoclomol on motor and sensor nerve conduction velocity deficit. It is filed as in vivo, rat. The note with it: for Improvement of nerve conduction velocity (%) motor (MNCV) / Improvement of nerve conduction velocity (%) sensor (SNCV): 5 mg/kg. How it is done: In a preliminary test the effectiveness of the three N-oxide derivatives of bimoclomol on motor and sensor neuropathy in STZ diabetic Wistar rats were studied. The effectiveness of the three bimoclomol N-oxide derivatives in improving the peripheral motor and sensor nerve conduction velocity deficit caused by streptozotocine-induced diabetes was determined with use of the method described in detail in Experiment 2.
(Graphpad Instat, San Diego, Calif.).

Take `[O-][n+]1cccc(C(Cl)=NOCC(O)CN2CCCCC2)c1` (centres unmarked) [N-[2-hydroxy-3-(1-piperidinyl)-1-propoxy]-pyridine-1-oxide-3-carboximidoyl chloride]: the “Improvement of nerve conduction velocity (%) motor (MNCV)” value is 66,5% and the “Improvement of nerve conduction velocity (%) sensor (SNCV)” value is 63,4%. Further, the “effect on the motor and sensor neuropathy compared with bimoclomol” value (N-oxide derivatives 5 mg/kg vs bimoclomol 20 mg/kg) was “equivalent with bimoclomol”.

In the case of `[O-][n+]1cccc(C(Cl)=NOCC(O)C[N+]2([O-])CCCCC2)c1` (centres unmarked) [double N-oxide derivative of bimoclomol], the “Improvement of nerve conduction velocity (%) motor (MNCV)” value is 25,9* % and the “Improvement of nerve conduction velocity (%) sensor (SNCV)” value is 29,1** %.
